Holding throughout (test): NCI-60 cell line screen, 48 h
In experiment [1] the test system is OVCAR-4 ovarian.
The subject of experiment [2] is HOP-62 NSCLC.
Experiment [3] has as its system CAKI-1 renal.
The subject of experiment [4] is K-562 leukemia.
Experiment [5] has as its system SK-OV-3 ovarian.
Experiment [6] has as its system DU-145 prostate.
Experiment [7] relates to HOP-92 NSCLC.
Experiment [8] relates to HCT-116 colon.
For experiment [9], the system named is BT-549 breast.
Experiment [10] relates to UACC-257 melanoma.

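All cell lines were grown in 96-well plates and treated with compound for 48 hours. TGI: concentration producing complete growth inhibition.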 A value given as a limit tells only on which side of the number the result lay.

As for `COc1cc2c(cc1OCCCC(=O)Nc1cc(C(=O)Nc3cc(C(=O)Nc4cc(C(=O)NCCCN(C)C)n(C)c4)n(C)c3)n(C)c1)N=C[C@@H]1CCCN1C2=O`, the TGI in experiment [1] was 3.15 µM; in [2] it was 9.83 µM; in experiment [3], 1.26 µM; in [4] it was above 100 µM; in [5], 28.4 µM; in experiment [6] it was 10.2 µM. The TGI is 3.38 µM in experiment [7], 3.45 µM in experiment [8], 4.91 µM in experiment [9] and 4.09 µM in experiment [10].

In the case of `Cc1cc(NS(=O)(=O)c2ccc(NC(=O)c3ccc4nc5ccccc5c(Nc5ccc(S(=O)(=O)N=C(N)N)cc5)c4c3)cc2)no1`, the TGI in experiment [1] came to 31.4 µM; in [2], 35.8 µM; in [3], 33.6 µM; in [4] it was 27.7 µM; in experiment [5], 41.6 µM; in experiment [6], 32.3 µM. In addition, the TGI in [7] is 67.6 µM; in [8] it was 35.6 µM; in experiment [9], 46 µM; in [10] it was 67.1 µM.

As to `NNC(=O)CC(=O)Nc1ccc(Cl)cc1`, the TGI in [1], in [2], in [3], in experiment [4], in experiment [5] and in experiment [6] was above 100 µM in each case. For the same compound, the TGI in experiment [7], in experiment [8], in experiment [9] and in experiment [10] was above 100 µM in each case.

For `CCCC1NC(C#N)(C#N)C(CCC)NC1(C#N)C#N` (stereo not given), the TGI in [1] is above 100 µM; in [2], above 100 µM; in experiment [3], above 50.4 µM; in [4] it was above 77.6 µM; in experiment [5], above 100 µM; in [6], above 43.1 µM. Moreover, the TGI in experiment [7] was above 32.4 µM; in experiment [8] it was above 37.1 µM; in experiment [9] it was above 27 µM; in [10], above 100 µM.

Take `O=C(NCC1Nc2ccncc2S(=O)(=O)N1)c1ccc(Br)cc1` (stereo not given): the TGI in experiment [1], in [2], in [3], in [4], in experiment [5] and in experiment [6] was above 100 µM throughout. Also, the TGI in [7], in experiment [8], in experiment [9] and in experiment [10] was above 100 µM in each case.

For `CC(C)CC(=O)NC(Nc1ccc(S(=O)(=O)Nc2ncccn2)cc1)(C(F)(F)F)C(F)(F)F`, the TGI in experiment [1], in experiment [2], in [3], in experiment [4], in [5] and in experiment [6] was above 100 µM in each case. In addition, the TGI in experiment [7], in experiment [8], in experiment [9] and in [10] was above 100 µM in each case.

`CC1(C)CCC[C@]2(C)[C@@H]1CC[C@@]13O[C@@H]1C1=C(CO)C(=O)O[C@]14O[C@@H]4[C@@H]23`: the TGI in [1] was 30 µM; in experiment [2], 34.6 µM; in [3], 36.4 µM; in [4], above 55.2 µM; in experiment [5], 31.7 µM; in experiment [6] it was 33.8 µM. The TGI in experiment [7] is 29.3 µM; in [8] it was 26.6 µM; in [9], 31.8 µM; in [10], 35.8 µM.

Values taken from PubChem BioAssay (NCI).
